Experimental data reported in patent US20250152675A1, “I-TYPE RECOMBINANT COLLAGEN WITH HIGH TRANSDERMAL ABSORBABILITY, AND USE THEREOF” (XI'AN GIANT BIOGENE TECHNOLOLGY CO., LTD, priority 2022, published 2025).
Residues, ends and D or L forms follow the SMILES beside them.

Experiment: Transdermal penetration through ex vivo mouse skin in a single-chamber diffusion cell, content by BCA kit
Assay type: in vitro ADME, Kunming mice
Settings: collagen peptide 5 mg/ml in 0.9% NaCl, diffusion area 2.0 cm^2, 37.5° C.
Description: 1. Preparation of Mouse Skin Ex Vivo 10 Kunming mice of 20 to 22 g with half male and half […] were used in the experiment. After the mice were killed, the hairs on the abdomen were removed. Then the skin on the hair-removed area was peeled off, stripped of fat and tendons, and rinsed repeatedly with distilled water. After being washed, the mouse skins were rinsed with normal saline, then treated with 10% glycerol, and stored at −20° C. for use (use up within 7 days).
Single-chamber diffusion cell: The effective diffusion area of the diffusion cell is 2.0 cm^2, the volume of the receiving cell is 14 ml, the length of the custom-made stirrer is 1.4 cm, and the receiving solution is 0.9% NaCl solution.
The stored mouse skin was taken out, thawed, washed with normal saline, and sandwiched between the receiving chamber and the supplying chamber, with the medicated side facing the supplying chamber and the skin side facing the receiving chamber. The temperature of the water bath system was adjusted to 37.5° C., and the stirring speed was adjusted to 100 rpm/min. 0.9% NaCl solution pre-warmed at 37° C. was added to the receiving chamber and the air bubbles were exhausted, in order to reduce the interference, the inner surface of the mouse skin was firstly contacted with the receiving solution without medication and all the receiving solution was replaced. Then the 27 collagen peptides synthesized were prepared into 5 mg/ml solutions using 0.9% NaCl respectively, which were injected into the supplying chamber and firmly adhere to the mouse skin respectively. After 24 h, part of the receiving solution was absorbed with a syringe as the sample solution to determine the transdermal amount of collagen peptide.
The BCA kit method was used to determine the polypeptide content in the sample solution. […]

Going from `CC(C)C[C@H](NC(=O)CNC(=O)[C@H](CCCNC(=N)N)NC(=O)[C@@H](NC(=O)CNC(=O)[C@H](CC(=O)O)NC(=O)[C@H](CCCCN)NC(=O)CNC(=O)[C@@H]1CCCN1C(=O)[C@H](CO)NC(=O)CNC(=O)[C@H](CC(=O)O)NC(=O)[C@H](C)NC(=O)CNC(=O)[C@H](CCCCN)NC(=O)[C@@H]1CCCN1C(=O)CNC(=O)[C@H](C)NC(=O)[C@H](CC(=O)O)NC(=O)CNC(=O)[C@H](CCCNC(=N)N)NC(=O)[C@H](CC(=O)O)NC(=O)CNC(=O)[C@H](CCCCN)NC(=O)[C@@H]1CCCN1C(=O)CNC(=O)[C@@H]1CCCN1C(=O)[C@H](CC(C)C)NC(=O)CNC(=O)[C@H](C)NC(=O)[C@H](C)NC(=O)CNC(=O)[C@H](CCCNC(=N)N)NC(=O)[C@H](CCC(=O)O)NC(=O)CN)C(C)C)C(=O)N[C@H](C(=O)O)[C@@H](C)O` [compound 18] (H-GERGAAGLPGPKGDRGDAGPKGADGSPGKDGVRGLT-OH; N-terminus and C-terminus assumed) to `CC(C)C[C@H](NC(=O)CNC(=O)[C@H](C)NC(=O)[C@@H](NC(=O)CNC(=O)[C@@H]1CCCN1C(=O)[C@H](CC(C)C)NC(=O)CNC(=O)[C@H](CCCNC(=N)N)NC(=O)[C@H](C)NC(=O)CNC(=O)[C@H](CCC(N)=O)NC(=O)[C@@H]1CCCN1C(=O)CNC(=O)[C@@H]1CCCN1C(=O)[C@@H]1CCCN1C(=O)CNC(=O)[C@H](CCCNC(=N)N)NC(=O)[C@H](CCC(=O)O)NC(=O)CNC(=O)[C@@H]1CCCN1C(=O)[C@H](CCCNC(=N)N)NC(=O)CNC(=O)[C@@H]1CCCN1C(=O)[C@H](CCCCN)NC(=O)CNC(=O)[C@H](C)NC(=O)[C@H](CCC(=O)O)NC(=O)CNC(=O)[C@H](CC(=O)O)NC(=O)[C@H](CC(=O)O)NC(=O)CNC(=O)[C@H](CC(N)=O)NC(=O)[C@H](CCCCN)NC(=O)CN)[C@@H](C)O)C(=O)N1CCC[C@H]1C(=O)O` [compound 2] (H-GKNGDDGEAGKPGRPGERGPPGPQGARGLPGTAGLP-OH; N-terminus and C-terminus assumed), the 24h penetration amount falls from 2309.24 µg to 2097.44 µg.

Compared with `CC[C@H](C)[C@H](NC(=O)CN)C(=O)N[C@@H](C)C(=O)NCC(=O)N[C@@H](CCC(N)=O)C(=O)N[C@@H](CCCNC(=N)N)C(=O)NCC(=O)N[C@H](C(=O)N[C@H](C(=O)NCC(=O)N[C@@H](CC(C)C)C(=O)N1CCC[C@H]1C(=O)NCC(=O)N[C@@H](CCC(N)=O)C(=O)N[C@@H](CCCNC(=N)N)C(=O)NCC(=O)N[C@@H](CCC(=O)O)C(=O)N[C@@H](CCCNC(=N)N)C(=O)NCC(=O)N[C@@H](Cc1ccccc1)C(=O)N1CCC[C@H]1C(=O)NCC(=O)N[C@@H](CC(C)C)C(=O)N1CCC[C@H]1C(=O)NCC(=O)N1CCC[C@H]1C(=O)N[C@@H](CO)C(=O)NCC(=O)N[C@@H](CCC(=O)O)C(=O)N1CCC[C@H]1C(=O)NCC(=O)N[C@@H](CCCCN)C(=O)N[C@@H](CCC(N)=O)C(=O)NCC(=O)N1CCC[C@H]1C(=O)N[C@@H](CO)C(=O)O)C(C)C)C(C)C` [compound 20] (H-GIAGQRGVVGLPGQRGERGFPGLPGPSGEPGKQGPS-OH; N-terminus and C-terminus assumed), `CC(C)C[C@H](NC(=O)CNC(=O)[C@@H](NC(=O)[C@@H](NC(=O)CN)C(C)C)C(C)C)C(=O)N1CCC[C@H]1C(=O)NCC(=O)N[C@@H](CCC(N)=O)C(=O)N[C@@H](CCCNC(=N)N)C(=O)NCC(=O)N[C@@H](CCC(=O)O)C(=O)N[C@@H](CCCNC(=N)N)C(=O)NCC(=O)N[C@@H](Cc1ccccc1)C(=O)N1CCC[C@H]1C(=O)NCC(=O)N[C@@H](CC(C)C)C(=O)N1CCC[C@H]1C(=O)NCC(=O)N1CCC[C@H]1C(=O)N[C@@H](CO)C(=O)NCC(=O)N[C@@H](CCC(=O)O)C(=O)N1CCC[C@H]1C(=O)NCC(=O)N[C@@H](CCCCN)C(=O)N[C@@H](CCC(N)=O)C(=O)NCC(=O)N1CCC[C@H]1C(=O)N[C@@H](CO)C(=O)NCC(=O)N[C@@H](C)C(=O)N[C@@H](CO)C(=O)NCC(=O)N[C@@H](CCC(=O)O)C(=O)N[C@@H](CCCNC(=N)N)C(=O)O` [compound 22] (H-GVVGLPGQRGERGFPGLPGPSGEPGKQGPSGASGER-OH; N-terminus and C-terminus assumed) is lower in 24h penetration amount: 2509.11 µg for the first, 2092.23 µg for the second.

Compared with `CC[C@H](C)[C@H](NC(=O)CNC(=O)[C@H](CCC(N)=O)NC(=O)[C@@H]1CCCN1C(=O)CNC(=O)[C@@H]1CCCN1C(=O)[C@@H](NC(=O)CNC(=O)[C@@H]1CCCN1C(=O)[C@H](C)NC(=O)CNC(=O)[C@H](C)NC(=O)[C@@H]1CCCN1C(=O)CNC(=O)[C@H](CC(=O)O)NC(=O)[C@H](C)NC(=O)CNC(=O)[C@@H]1CCCN1C(=O)[C@H](CO)NC(=O)CN)[C@@H](C)O)C(=O)N[C@@H](C)C(=O)NCC(=O)N[C@@H](CCC(N)=O)C(=O)N[C@@H](CCCNC(=N)N)C(=O)NCC(=O)N[C@H](C(=O)N[C@H](C(=O)NCC(=O)N[C@@H](CC(C)C)C(=O)N1CCC[C@H]1C(=O)NCC(=O)N[C@@H](CCC(N)=O)C(=O)N[C@@H](CCCNC(=N)N)C(=O)NCC(=O)N[C@@H](CCC(=O)O)C(=O)N[C@@H](CCCNC(=N)N)C(=O)O)C(C)C)C(C)C` [compound 19] (H-GSPGADGPAGAPGTPGPQGIAGQRGVVGLPGQRGER-OH; N-terminus and C-terminus assumed), `CSCC[C@H](NC(=O)[C@H](CCC(N)=O)NC(=O)CNC(=O)[C@@H]1CCCN1C(=O)[C@H](C)NC(=O)CNC(=O)[C@H](CC(N)=O)NC(=O)[C@H](CCC(=O)O)NC(=O)CN)C(=O)NCC(=O)N1CCC[C@H]1C(=O)N[C@@H](CCCNC(=N)N)C(=O)NCC(=O)N[C@@H](CC(C)C)C(=O)N1CCC[C@H]1C(=O)NCC(=O)N[C@@H](CCC(=O)O)C(=O)N[C@@H](CCCNC(=N)N)C(=O)NCC(=O)N[C@@H](CCCNC(=N)N)C(=O)N1CCC[C@H]1C(=O)NCC(=O)N[C@@H](C)C(=O)N1CCC[C@H]1C(=O)NCC(=O)N1CCC[C@H]1C(=O)N[C@@H](C)C(=O)NCC(=O)N[C@@H](C)C(=O)N[C@@H](CCCNC(=N)N)C(=O)NCC(=O)N[C@@H](CC(N)=O)C(=O)N[C@@H](CC(=O)O)C(=O)NCC(=O)N[C@@H](C)C(=O)N[C@H](C(=O)O)[C@@H](C)O` [compound 5] (H-GENGAPGQMGPRGLPGERGRPGAPGPAGARGNDGAT-OH; N-terminus and C-terminus assumed) is lower in 24h penetration amount: 2432.23 µg for the first, 2123.45 µg for the second.

First: CSCC[C@H](NC(=O)[C@@H]1CCCN1C(=O)CNC(=O)[C@@H]1CCCN1C(=O)[C@@H]1CCCN1C(=O)CNC(=O)[C@H](CCCNC(=N)N)NC(=O)[C@H](CCC(=O)O)NC(=O)CNC(=O)[C@H](CO)NC(=O)[C@H](C)NC(=O)CNC(=O)[C@H](CO)NC(=O)[C@@H]1CCCN1C(=O)CNC(=O)[C@H](CCC(N)=O)NC(=O)[C@H](CCCCN)NC(=O)CNC(=O)[C@@H]1CCCN1C(=O)[C@H](CCC(=O)O)NC(=O)CNC(=O)[C@H](CO)NC(=O)[C@@H]1CCCN1C(=O)CNC(=O)[C@@H]1CCCN1C(=O)[C@H](CC(C)C)NC(=O)CNC(=O)[C@@H]1CCCN1C(=O)[C@H](Cc1ccccc1)NC(=O)CNC(=O)[C@H](CCCNC(=N)N)NC(=O)[C@H](CCC(=O)O)NC(=O)CN)C(=O)NCC(=O)N1CCC[C@H]1C(=O)N1CCC[C@H]1C(=O)O [compound 21] (H-GERGFPGLPGPSGEPGKQGPSGASGERGPPGPMGPP-OH; N-terminus and C-terminus assumed)
Second: CSCC[C@H](NC(=O)[C@@H]1CCCN1C(=O)CNC(=O)[C@@H]1CCCN1C(=O)[C@@H]1CCCN1C(=O)CNC(=O)[C@H](CCCNC(=N)N)NC(=O)[C@H](CCC(=O)O)NC(=O)CNC(=O)[C@H](CO)NC(=O)[C@H](C)NC(=O)CNC(=O)[C@H](CO)NC(=O)[C@@H]1CCCN1C(=O)CNC(=O)[C@H](CCC(N)=O)NC(=O)[C@H](CCCCN)NC(=O)CNC(=O)[C@@H]1CCCN1C(=O)[C@H](CCC(=O)O)NC(=O)CN)C(=O)NCC(=O)N1CCC[C@H]1C(=O)N1CCC[C@H]1C(=O)NCC(=O)N[C@@H](CC(C)C)C(=O)N[C@@H](C)C(=O)NCC(=O)N1CCC[C@H]1C(=O)N1CCC[C@H]1C(=O)NCC(=O)N[C@@H](CCC(=O)O)C(=O)N[C@@H](CO)C(=O)NCC(=O)N[C@@H](CCCNC(=N)N)C(=O)N[C@@H](CCC(=O)O)C(=O)O [compound 23] (H-GEPGKQGPSGASGERGPPGPMGPPGLAGPPGESGRE-OH; N-terminus and C-terminus assumed)
The 24h penetration amount of the first is lower: 2199.78 µg for the first, 2323.45 µg for the second.

For `C[C@H](NC(=O)CNC(=O)[C@@H](NC(=O)[C@H](C)NC(=O)CNC(=O)[C@H](CC(=O)O)NC(=O)[C@H](CC(N)=O)NC(=O)CNC(=O)[C@H](CCCNC(=N)N)NC(=O)[C@H](C)NC(=O)CNC(=O)[C@H](C)NC(=O)[C@@H]1CCCN1C(=O)CNC(=O)[C@@H]1CCCN1C(=O)[C@H](C)NC(=O)CNC(=O)[C@@H]1CCCN1C(=O)[C@H](CCCNC(=N)N)NC(=O)CNC(=O)[C@H](CCCNC(=N)N)NC(=O)[C@H](CCC(=O)O)NC(=O)CN)[C@@H](C)O)C(=O)N[C@@H](C)C(=O)NCC(=O)N1CCC[C@H]1C(=O)N1CCC[C@H]1C(=O)NCC(=O)N1CCC[C@H]1C(=O)N[C@H](C(=O)NCC(=O)N1CCC[C@H]1C(=O)N[C@@H](C)C(=O)NCC(=O)N1CCC[C@H]1C(=O)N1CCC[C@H]1C(=O)O)[C@@H](C)O` [compound 6] (H-GERGRPGAPGPAGARGNDGATGAAGPPGPTGPAGPP-OH; N-terminus and C-terminus assumed), the 24h penetration amount was 2233.35 µg.
